The values that follow come from patent US20140121168A1, “ANTAGONISTS OF TRPV1 RECEPTOR” (ANTAGONISTS OF TRPV1 RECEPTOR, priority 2011, published 2014).

Where a SMILES comes first, the peptide text is derived from it. Bridges are numbered along the chain shown (N, C = ends). [ ]: non-standard residue; d: D form. d(aThr) = C[C@@H](O)[C@@H](N)C(=O)O; Dhb = C/C=C(\N)C(=O)O

For this assay, the target named is TRPV1 (Homo sapiens, UniProt Q8NER1). The assay is described as follows: TRPV1 assays, inhibition of capsaicin response (cell line not stated for the IC50 values).
Chain of TRPV1 (Q8NER1 whole entry): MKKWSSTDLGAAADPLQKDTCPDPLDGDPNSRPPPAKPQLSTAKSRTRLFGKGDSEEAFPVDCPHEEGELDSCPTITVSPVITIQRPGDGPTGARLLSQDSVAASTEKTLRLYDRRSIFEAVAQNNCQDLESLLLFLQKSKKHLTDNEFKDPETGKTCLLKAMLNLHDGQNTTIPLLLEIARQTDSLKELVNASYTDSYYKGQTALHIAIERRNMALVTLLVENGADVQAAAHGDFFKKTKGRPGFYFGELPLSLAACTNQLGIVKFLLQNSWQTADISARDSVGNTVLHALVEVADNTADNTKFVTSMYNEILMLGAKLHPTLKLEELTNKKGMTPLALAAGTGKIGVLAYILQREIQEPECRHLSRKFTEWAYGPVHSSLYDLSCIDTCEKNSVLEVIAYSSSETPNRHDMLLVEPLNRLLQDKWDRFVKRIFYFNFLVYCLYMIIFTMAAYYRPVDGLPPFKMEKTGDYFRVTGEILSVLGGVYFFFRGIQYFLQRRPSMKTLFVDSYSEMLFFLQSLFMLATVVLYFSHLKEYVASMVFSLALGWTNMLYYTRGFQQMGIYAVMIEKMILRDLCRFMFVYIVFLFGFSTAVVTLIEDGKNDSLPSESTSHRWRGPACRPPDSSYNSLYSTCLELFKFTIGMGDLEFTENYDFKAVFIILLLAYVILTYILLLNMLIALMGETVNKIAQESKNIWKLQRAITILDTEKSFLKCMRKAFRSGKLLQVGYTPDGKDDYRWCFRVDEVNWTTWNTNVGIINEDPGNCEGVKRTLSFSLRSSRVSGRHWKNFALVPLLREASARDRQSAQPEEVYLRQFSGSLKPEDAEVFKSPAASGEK

As for Nobilamide E [compound 8], the “inhibitory activity on TRPV1 (in words)” value was “inactive”.
Take `C/C=C1\NC(=O)[C@H](C)NC(=O)[C@H](C(C)C)NC(=O)[C@H](NC(=O)[C@H](Cc2ccccc2)NC(=O)[C@@H](CC(C)C)NC(=O)[C@@H](Cc2ccccc2)NC(C)=O)[C@@H](C)OC1=O` [compound 1, A-3302-B] (Ac-[dF][dL]F[d(aThr)]VA[Dhb]; ester 4-C): the “inhibitory activity on TRPV1 (in words)” value is listed as “substantial inhibitory activity”.
